Results from ChEMBL document CHEMBL1201862, “PubChem BioAssay data set” (2004).
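Following 48 hours of exposure in 96-well plates, responses at five concentrations were used to interpolate endpoints linearly. Abbreviation: GI50, concentration required for 50% inhibition of growth.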 The source made the active and inactive calls. Rule as the data show it: active = GI50 up to about 1.1 µM and inactive = higher.

Experiments:
Experiment in all cases: DTP human tumour cell line panel, 48 h
HOP-92 = test system: HOP-92
OVCAR-3 = test system: OVCAR-3
HT-29 = test system: HT-29
U-251 = test system: U-251
A549 = test system: A549
SR = test system: SR
HL-60 = test system: HL-60
SK-MEL-2 = test system: SK-MEL-2
IGROV-1 = test system: IGROV-1
MOLT-4 = test system: MOLT-4
SNB-75 = test system: SNB-75
ACHN = test system: ACHN
SN12C = test system: SN12C
UACC-257 = test system: UACC-257
NCI-H460 = test system: NCI-H460
CCRF-CEM = test system: CCRF-CEM
CAKI-1 = test system: CAKI-1
Hs-578T = test system: Hs-578T
MDA-MB-231 = test system: MDA-MB-231

SMILES	GI50 (HOP-92)	GI50 (OVCAR-3)	GI50 (HT-29)	GI50 (U-251)	GI50 (A549)	GI50 (SR)	GI50 (HL-60)	GI50 (SK-MEL-2)	GI50 (IGROV-1)	GI50 (MOLT-4)	GI50 (SNB-75)	GI50 (ACHN)	GI50 (SN12C)	GI50 (UACC-257)	GI50 (NCI-H460)	GI50 (CCRF-CEM)	GI50 (CAKI-1)	GI50 (Hs-578T)	GI50 (MDA-MB-231)
NCCn1cnc2nc(NC(=O)c3ccccc3)[nH]c(=O)c21	> 100 µM (inactive)	> 100 µM (inactive)	> 100 µM (inactive)	> 100 µM (inactive)	> 100 µM (inactive)	> 100 µM (inactive)	> 100 µM (inactive)	> 100 µM (inactive)	> 100 µM (inactive)	> 100 µM (inactive)	45.7 µM (inactive)	> 100 µM (inactive)	> 100 µM (inactive)	> 100 µM (inactive)	> 100 µM (inactive)				
COC(=O)NC(=O)c1cn(C2CCCCC2)c(=O)[nH]c1=O	> 100 µM (inactive)	> 100 µM (inactive)	> 100 µM (inactive)	> 100 µM (inactive)	> 100 µM (inactive)	> 100 µM (inactive)	> 100 µM (inactive)	> 100 µM (inactive)	> 100 µM (inactive)	> 100 µM (inactive)	> 100 µM (inactive)	> 100 µM (inactive)	> 100 µM (inactive)	> 100 µM (inactive)	> 100 µM (inactive)	> 100 µM (inactive)	> 100 µM (inactive)		
COc1ccc2c(c1OCC(=O)O)C(=O)C(CCC(=O)O)CC2 (configuration not stated)		> 100 µM (inactive)	> 100 µM (inactive)	> 100 µM (inactive)	> 100 µM (inactive)		> 100 µM (inactive)		> 100 µM (inactive)	> 100 µM (inactive)	> 100 µM (inactive)	> 100 µM (inactive)	> 100 µM (inactive)	> 100 µM (inactive)	> 100 µM (inactive)	> 100 µM (inactive)	> 100 µM (inactive)		
N/N=C(/Cc1nc2ccc(C(=O)c3ccccc3)cc2nc1O)C(=O)Nc1ccc([N+](=O)[O-])cc1[N+](=O)[O-]	> 10 µM (inactive)	> 10 µM (inactive)	> 10 µM (inactive)	> 10 µM (inactive)	> 10 µM (inactive)	> 10 µM (inactive)	> 10 µM (inactive)	> 10 µM (inactive)	> 10 µM (inactive)	> 10 µM (inactive)	> 10 µM (inactive)	> 10 µM (inactive)	> 10 µM (inactive)	> 100 µM (inactive)	> 10 µM (inactive)	> 10 µM (inactive)	> 100 µM (inactive)		
O=c1c2c(nc3n1CCC3)sc1c(O)c(Br)ccc12	> 100 µM (inactive)	19.1 µM (inactive)	12.5 µM (inactive)	20.2 µM (inactive)	15.4 µM (inactive)	12.1 µM (inactive)	14.7 µM (inactive)	20.7 µM (inactive)	24.1 µM (inactive)	11.1 µM (inactive)	> 100 µM (inactive)	14.6 µM (inactive)	16.4 µM (inactive)	16.6 µM (inactive)	16.4 µM (inactive)	15.5 µM (inactive)	> 100 µM (inactive)		
O=C1C(=O)N(C2C3CC4CC(C3)CC2C4)C(=O)C(=O)C1c1nc2ccccc2o1 (configuration not stated)	61.1 µM (inactive)	25.1 µM (inactive)	20.7 µM (inactive)	23.1 µM (inactive)	> 100 µM (inactive)			> 100 µM (inactive)	42.3 µM (inactive)		33.1 µM (inactive)	> 100 µM (inactive)	98.4 µM (inactive)	26.1 µM (inactive)	> 100 µM (inactive)		> 100 µM (inactive)		
CC(=O)O[C@]1(C)CCC2C(C)C(=O)OC2C2C(C)[C@@H](O)CC21 (some centres not stated)	26.4 µM (inactive)	12.9 µM (inactive)	31.5 µM (inactive)	30.1 µM (inactive)	52.7 µM (inactive)	3.56 µM (inactive)	14.2 µM (inactive)	20.3 µM (inactive)	40.7 µM (inactive)		60.5 µM (inactive)	29.3 µM (inactive)	35.6 µM (inactive)	> 100 µM (inactive)	66.5 µM (inactive)	23.8 µM (inactive)	47.2 µM (inactive)		
COc1cccc(NC(=O)CSc2nnc(-c3ccc(/N=C\c4ccc(Cl)cc4)cc3)o2)c1			15.6 µM (inactive)	17.1 µM (inactive)	27.2 µM (inactive)	28.2 µM (inactive)	27.7 µM (inactive)	19 µM (inactive)		23.4 µM (inactive)	23.8 µM (inactive)	16.4 µM (inactive)	21.2 µM (inactive)	> 10 µM (inactive)	20.1 µM (inactive)	26.6 µM (inactive)			
O=C(OCCOCBr)c1ccccc1	> 100 µM (inactive)	> 100 µM (inactive)	> 100 µM (inactive)	> 100 µM (inactive)	> 100 µM (inactive)	> 100 µM (inactive)	> 100 µM (inactive)	> 100 µM (inactive)	> 100 µM (inactive)	> 100 µM (inactive)	> 100 µM (inactive)	> 100 µM (inactive)	> 100 µM (inactive)	> 100 µM (inactive)	> 100 µM (inactive)	> 100 µM (inactive)	> 100 µM (inactive)		
O=C(O)CCC1(Br)CCCCC(Br)C1=O (configuration not stated)	32.7 µM (inactive)	> 100 µM (inactive)	> 100 µM (inactive)	> 100 µM (inactive)	> 100 µM (inactive)		> 100 µM (inactive)	77.4 µM (inactive)	> 100 µM (inactive)	> 100 µM (inactive)	35.9 µM (inactive)	> 100 µM (inactive)	> 100 µM (inactive)	> 100 µM (inactive)	> 100 µM (inactive)	95.3 µM (inactive)	> 100 µM (inactive)		
COc1ccccc1/C=C(\C#N)C(=O)c1ccccc1	> 100 µM (inactive)	> 100 µM (inactive)	> 100 µM (inactive)	> 100 µM (inactive)	> 100 µM (inactive)	> 100 µM (inactive)	> 100 µM (inactive)	> 100 µM (inactive)	> 100 µM (inactive)	> 100 µM (inactive)		> 100 µM (inactive)	> 100 µM (inactive)	> 100 µM (inactive)	> 100 µM (inactive)	> 100 µM (inactive)	> 100 µM (inactive)		
C/C(CC(=O)Nc1ccc(Cl)cc1)=N\NC(N)=S	> 100 µM (inactive)	> 100 µM (inactive)	> 100 µM (inactive)	> 100 µM (inactive)	26.5 µM (inactive)		12.8 µM (inactive)	> 100 µM (inactive)	> 100 µM (inactive)	45.3 µM (inactive)	> 100 µM (inactive)	9.14 µM (inactive)		21.9 µM (inactive)	45.5 µM (inactive)	30 µM (inactive)			
CCOC(=O)c1c(-c2ccccc2)nc2c(OC)nccn12		> 100 µM (inactive)	> 100 µM (inactive)	> 100 µM (inactive)	> 100 µM (inactive)	> 100 µM (inactive)	> 100 µM (inactive)	> 100 µM (inactive)	> 100 µM (inactive)	14.5 µM (inactive)	> 100 µM (inactive)		> 100 µM (inactive)	> 100 µM (inactive)	> 100 µM (inactive)	> 100 µM (inactive)	> 100 µM (inactive)	> 100 µM (inactive)	> 100 µM (inactive)
O=[N+]([O-])c1cc(I)cc(/C=N/NS(=O)(=O)c2ccc(Cl)cc2)c1O	20.5 µM (inactive)	19.1 µM (inactive)	16.3 µM (inactive)	18.7 µM (inactive)	35.8 µM (inactive)	21.4 µM (inactive)	27.7 µM (inactive)	23.5 µM (inactive)	20.3 µM (inactive)	19.5 µM (inactive)	27 µM (inactive)	22.8 µM (inactive)	23.7 µM (inactive)	24.4 µM (inactive)	19.9 µM (inactive)	25.4 µM (inactive)	22.3 µM (inactive)		
CCC(O)C1Cc2c(C)cc3c(c2O1)C(=O)c1ccccc1C3=O (configuration not stated)	29.4 µM (inactive)	29.4 µM (inactive)	39.4 µM (inactive)	26.2 µM (inactive)	36 µM (inactive)	33.5 µM (inactive)	17.9 µM (inactive)	44.4 µM (inactive)	31.5 µM (inactive)	27.4 µM (inactive)	31.8 µM (inactive)	27.8 µM (inactive)	35.3 µM (inactive)	69 µM (inactive)	27.3 µM (inactive)	31.3 µM (inactive)	24.5 µM (inactive)		
Cc1nn(C)c(=S)n(C)c1=O	0.291 µM (active)	4.19 µM (inactive)	24.8 µM (inactive)	1.75 µM (inactive)	0.439 µM (active)		1.31 µM (inactive)	0.733 µM (active)	1 µM (active)	1.29 µM (inactive)	0.329 µM (active)	0.387 µM (active)	0.927 µM (active)	1.05 µM (active)	0.394 µM (active)	1.55 µM (inactive)			
CC(=O)Oc1ccc2c(=O)c(C(C)=O)coc2c1	79.6 µM (inactive)	> 100 µM (inactive)	> 100 µM (inactive)	> 100 µM (inactive)	> 100 µM (inactive)	> 100 µM (inactive)	> 100 µM (inactive)	> 100 µM (inactive)	> 100 µM (inactive)	> 100 µM (inactive)		> 100 µM (inactive)		> 100 µM (inactive)	> 100 µM (inactive)	> 100 µM (inactive)	> 100 µM (inactive)		
c1nc2cscc2c2cscc12	14.7 µM (inactive)	> 100 µM (inactive)	> 100 µM (inactive)	> 100 µM (inactive)	> 100 µM (inactive)	> 100 µM (inactive)	> 100 µM (inactive)	> 100 µM (inactive)	> 100 µM (inactive)	> 100 µM (inactive)		> 100 µM (inactive)	> 100 µM (inactive)	> 100 µM (inactive)	> 100 µM (inactive)	> 100 µM (inactive)	42.8 µM (inactive)		
